The text below walks through data of patent US20100135992A1, “Prolongation of Survival of an Allograft by Inhibiting Complement Activity” (Alexion Pharmaceuticals, Inc., priority 2006, published 2010).

Data set [1] relates to Bcl-2 and Bcl-xl proteins. In words: Western blot of kidney grafts. It counts as in vivo, mouse. As to conditions: POD100 (accommodated) or rejected grafts, FIG. 14. From the text: Western Blot Analysis Frozen kidney samples were sonicated, separated by electrophoresis and transferred to polyvinylidene difluoride (PVDF; Invitrogen) membranes. Intragraft expression of Bcl-2 and Bcl-XS/L was detected using the polyclonal sera N-19 and M-125, respectively (Santa Cruz Biotechnology, Inc.). Polyclonal anti-calsequestrin (Calbiochem) served as a sample loading control (Kobayashi et al., 1999). Antibody binding was detected by horseradish-peroxidase-conjugated goat anti-rabbit IgG and enhanced chemiluminescence development (Roche Laboratories) (Arp et al., 1996).
Background: In western blotting, separated proteins are transferred to a membrane and probed.

For data set [2], the system named is terminal complement activity. In words: Complement hemolytic assay of recipient mouse sera (kidney model). Type of data set: in vivo. As to conditions: POD7, presensitized kidney recipients, FIG. 12. Here is the method:
Complement Hemolytic Assay Terminal complement activity in recipient mouse sera was determined by standard methods to assess the ability of sera to lyse chicken erythrocytes presensitized with erythrocyte-specific antibodies as previously described (Wang et al., 1999).

In data set [3] the test system is C3H kidney allografts in presensitized BALB/c recipients. In words: Immunoperoxidase staining of kidney allografts in presensitized mouse recipients at necropsy. It counts as in vivo. The arrangement: key: 0, negative; 1+, equivocal; 2+, weak; 3+, moderate; 4+, intense. To be noted: kidney allograft, at the time of rejection. From the text: Immunohistochemistry Tissue samples embedded in Optimum Cutting Temperature (O.C.T.) gel (Skura Finetek, Torrance, Calif.) were sectioned and stained for CD4^+, CD8^+ and Mac-1^+ infiltrating cells and for IgG, IgM, C3 and C5 deposition using an Elite Vectastain ABC kit (Vector Laboratories Inc., Burlingame, Calif.). Primary biotinylated antibodies included anti-CD4 (YTS 191.1.2, Cedarlane Laboratories Ltd., Hornby, Ontario, Canada), anti-CD8 (53-6.7, BD Biosciences, Franklin Lakes, N.J.) and anti-Mac-1 (Cedarlane). Intragraft IgG and IgM deposition was detected using biotinylated goat anti-mouse-IgG and goat anti-mouse-IgM (Cedarlane). Complement deposition was detected following serial incubation with goat anti-mouse C3 or anti-mouse C5 polyclonal Abs (Quidel, San Diego, Calif.), biotinylated rabbit anti-goat IgG (Vector Laboratories), and HRP-conjugated-streptavidin (Zymed Laboratories, South San Francisco, Calif.). Negative controls were performed by omitting the primary antibodies. The immunostaining was scored in five high-power fields of each section using tissue samples from five animals per experimental group. Immunoreactivity was graded from 0 to 4+ according to staining intensity as follows: 0, negative; 1+, equivocal; 2+, weak; 3+, moderate; and 4+, very intensive staining.

The subject of data set [4] is circulating anti-donor IgG and IgM antibodies. Nature of the data set: Flow cytometry of circulating anti-donor antibodies (kidney model). Type of data set: in vivo, mouse. Here is the method:
Flow Cytometry Circulating anti-donor specific IgG and IgM antibodies were evaluated in recipient sera by flow cytometry. Briefly, C3H mouse splenocytes were isolated and incubated at 37° C. for 30 minutes with serum samples obtained at the indicated timepoints from mice from the various treatment groups. To stain for total IgG or specific antibody subclasses, the washed cells were incubated with FITC-conjugated goat anti-mouse antibodies specific for the Fc portion of mouse IgG, mouse IgG1, mouse IgG2a, mouse IgG2b or mouse IgG3 (all from (CALTAG Laboratories, Burlingame, Calif.) or with a phycoerythrin-conjugated goat antibody specific for mouse IgM (Jackson ImmunoResearch Laboratories, West Grove, Pa.) for 1 hour at 4° C., washed and analyzed on a FACScan flow cytometer (Becton Dickinson, Mountain View, Calif.) (Collins et al., 1999; Pratt et al., 1996). The results are expressed as mean channel fluorescence intensity as a measure of the level of each anti-donor isotype in the samples.
(In general: In flow cytometry, cells or beads pass a laser one at a time.)

Data set [5] concerns C3H kidney allografts in presensitized BALB/c recipients. The text has this:
Animals Male adult C3H (H-2^k) mice and BALB/c (H-2^d mice (Jackson Labs, Bar Harbor, Me.) weighing 25-30 g were chosen as donors and recipients, respectively. Animals were housed under conventional conditions at the Animal Care Facility, The University of Western Ontario, and were cared for in accordance with the guidelines established by the Canadian Council on Animal Care.
Skin Presensitization Full-thickness skin grafts taken from C3H donors were cut into 1×1 cm^2 pieces and transplanted onto the backs of BALB/c recipient mice. Rejection was defined as complete necrosis of the skin grafts.
The donor ureter was also sutured to the recipient bladder using 10-0 sutures. The native kidneys were removed immediately after grafting. Graft rejection leading to host death was used as the endpoint of rejection for kidney transplants.
Measurement of Serum Creatinine Serum samples were obtained at study endpoint (time of rejection or POD100) after kidney transplantation. Serum creatinine levels were quantitated in 10 μL samples using the Sigma Diagnostics (Sigma, St. Louis, Mo.) procedure, which measures creatinine by a kinetic modification of the Jaffe reaction (Junge et al., 2004). Graft Histology At necropsy, tissue samples were processed for hematoxylin and eosin (H&E) staining (Wang et al, JI 2003) and evaluated for vasculitis, thrombosis, hemorrhage and lymphocyte infiltration; changes were scored as: 0, none; 1, minimal; 2, mild; 3, moderate or 4, marked compared to normal tissues.

In data set [6] the test system is cardiac allograft in presensitized rats. As to conditions: cyclosporin A 10 mg/kg/day i.m., sCR1 15 mg/kg single i.v. bolus; cited from earlier work.

As for `C[C@@H](N)CCNCCCCNC(=O)OCC(=O)NCCCCCCNC(=N)N` [LF, LF15-0195], the “expression of Bcl-2 and Bcl-xl proteins in kidney grafts” value in data set [1] is given as “undetectable”. The “terminal/serum complement activity (in vitro serum hemolytic assay)” value in data set [2] is “no inhibitory effect”. Also, in data set [3], the C3 immunoperoxidase staining was 3+, the C5 immunoperoxidase staining was 3+, the IgG immunoperoxidase staining is 3+ and the IgM immunoperoxidase staining was 1+. Moreover, the Mac-1 immunoperoxidase staining in data set [3] is listed as 4+. For the same compound, in data set [4] (kidney recipients at time of rejection, triple-therapy POD 100, FIG. 13A), the “circulating anti-donor IgG levels” value is recorded as “partially reduced”. Also, the “predominant anti-donor IgG subclass” value in data set [4] (presensitized kidney recipients, FIG. 13B) was “IgG1, IgG2a and IgG3”. Besides, the nephrotoxicity entry in data set [5] (kidney allograft model development) is “not associated with nephrotoxicity”. In addition, the “kidney graft survival (time to rejection)” value in data set [5] (presensitized recipients, FIG. 11A) came out at 6.0 ± 1.0 days.

Take “sCR1: soluble complement receptor 1, binds complements C3b and C4b”: the “average time of graft rejection” value in data set [6] is given as 44 days.
